Source: patent US20110028517A1 (LABORATORIOS DEL DR. ESTEVE, S.A., priority 2008, published 2011)

Key:
[1] = molecular target: T1, CB1 receptors present in the CNS (Mus musculus, UniProt P47746); experiment: Reversion of the analgesic effect of CP-55,940 in tail flick test in mice; assay type: in vivo; conditions: for reversion of the analgesic effect of CP-55,940: CP-55,940 0.3 mg/kg subcutaneous, FIG. 5
T1 construct: from tissue; host or cells: live CD1 mouse, central nervous system
Experimental: (§1) Male CD1 mice (Charles River Laboratories), weighting 30 to 40 g (7-8 weeks old) and Male Wistar rats (Charles River Laboratories), weighting 260-300 g (7-8 weeks old) at the time of experiment, were housed in a controlled environment. Temperature was maintained at 22±2° C. on a 12-h light/dark cycle (On at 07:00 h and Off at 19:00 h) and food and water were available ad libitum. The experiments were performed during the light phase. The number of mice ranged from 4 to 15 per group in each individual experiment. Animals were always handled in accordance with ethical principles for the evaluation of pain in conscious animals (Zimmerman, 1983) and with the European Communities Council Directive of 24 November 1986 (86/609/ECC), and received approval by the local Ethical Committee.
CP-55,940 (Ref. 0949, Tocris; Wiley et al., 1995) was administrated by subcutaneous route at 0.3 mg/kg in a volume of 5 ml/kg in mice and by intraperitoneal route at 0.5 mg/kg in a volume of 2 ml/kg in rat. NESS-0327 (Ruiu et al., 2003) was administrated by intraperitoneal route at 0.3 mg/kg and 1 mg/kg in a volume of 10 ml/kg in mice. […] All compounds were dissolved using HPMC (Hydroxypropyl methyl cellulose) which was prepared at a concentration of 0.5% in Milli-Q water.
The tail flick test was used to evaluate the antinociceptive effect of compounds. The test was performed as previously described (Moncada et al., 2003 and Robles et al., 1996). A noxious beam of light was focused on the mice tail about 4 cm from its tip, and the tail flick latency was recorded automatically to the nearest 0.1 s. The intensity of the radiant heat source was adjusted to produce latencies between 3-5 sec in vehicle treated mice and 2-4 sec in vehicle treated rats. In order to minimize cutaneous injuries a cut-off time of 10 s was used.
Mice were tested 60 min after subcutaneous administration of CP-55,940 (0.3 mg/kg) or vehicle (HPMC 0.5%).
Data are presented as tail flick latency responses in sec ±S.E.M and as percentage of analgesia ±S.E.M. The values in the control group were compared against those obtained in the treated groups. Statistical analysis to test intergroup comparisons was made using an initial one-way analysis of variant followed by the Newman-Keuls multiple comparison test. The level of significance was set at p<0.05.

[2] = molecular target: T2, Human CB1 receptor (Homo sapiens, UniProt P21554); experiment: In-vitro determination of affinity to human CB1-receptors ([3H] (+)-CP55,940 radioligand binding, HEK-293 membranes); set-up: expressed in transfected cells; conditions: [3H] (+)-CP55,940 0.45 nM
T2 sequence (P21554 whole entry): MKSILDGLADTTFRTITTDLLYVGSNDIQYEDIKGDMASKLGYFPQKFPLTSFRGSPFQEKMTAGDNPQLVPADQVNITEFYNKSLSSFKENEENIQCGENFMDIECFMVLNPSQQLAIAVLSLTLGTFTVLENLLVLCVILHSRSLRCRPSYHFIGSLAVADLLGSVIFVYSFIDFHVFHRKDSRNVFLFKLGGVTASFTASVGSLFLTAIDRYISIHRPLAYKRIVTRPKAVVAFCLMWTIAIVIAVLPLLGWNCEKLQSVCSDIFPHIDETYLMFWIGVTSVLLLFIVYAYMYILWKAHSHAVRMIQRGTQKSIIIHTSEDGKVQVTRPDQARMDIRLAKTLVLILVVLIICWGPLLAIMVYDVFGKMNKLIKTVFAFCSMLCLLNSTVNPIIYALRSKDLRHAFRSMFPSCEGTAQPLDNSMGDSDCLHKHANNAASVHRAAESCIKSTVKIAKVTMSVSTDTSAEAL
Experimental: Binding affinity for CB1 receptor was evaluated according to a modification of the Govaerts S J, Hermans E and Lambert D M. “Comparison of cannabinoid ligand affinities and efficacies in murine tissues and in transfected cells expressing human recombinant cannabinoid receptors”. Eur. J. Pharm. Sci. 2004, 23 (3): 233-43 described method. Human CB1 receptor was transfected into HEK-293 cells and a stable clone obtained and membranes prepared from this clone was used as the membrane source for radioligand binding studies. [3H] (+)-CP55,940 was used as radioligand at a final concentration of 0.45 nM. The incubation buffer was Tris-HCl 50 mM, MgCl2 5 mM, EDTA 1 mM, BSA 0.5%, pH 7.4 and the non-specific binding was determined with 10 μM of HU210. Samples were incubated at 37° C. for 60 min before filtration. Radioactivity on filters was measured with Wallac Winspectral 1414 counter by liquid scintillation in Ecoscint H (National Diagnostics, U.K.).

[3] = molecular target: T2, Human CB1 receptor; experiment: In-vitro determination of functional activity to human CB1-receptors ([35S]GTPγS binding in presence of Win 55,212-2, CHO-CB1 membranes); assay type: biochemical; set-up: expressed in transfected cells; host or cells: CHO cells, stably transfected, membranes; conditions: for functional behaviour at CB1 receptor (inverse agonist or neutral antagonist): [35S]GTPγS binding relative to basal levels, FIG. 1
Experimental: The binding of [^35S]GTPγS was carried out using a modification of previously published methods Meschler, J. P., Kraichely, D. M., Wilken, G. M AND Howlet, A. C. […] Eur. J. Pharm. Sci. 2004, 23 (3): 233-43.
Human CB1 membranes were prepared from stably transfected CHO cells. Incubation mixtures consisted of CHO-CB1 membrane preparation at a final concentration of 15 μg of protein, compound (dose-response curve between 3 nM and 3 μM, final well concentration), Win 55,212-2 (0.3 μM final well concentration) and binding buffer (50 mM HEPES, pH 7.4, 100 mM KCl, 5 mM MgCl2, 1 mM EDTA, 0.1% wt/vol bovine serum albumin, 5 μM GDP, saponin 10 μg/ml). Subsequently [^35S]GTPγS (0.25 nM) was added, samples were incubated for 60 minutes at 30° C. and finally filtered. Radioactivity on filters was measured with Wallac Microbeta Trilux. Data analysis was performed by using Graph Pad Prism version 3.03 for windows. The bottom plateau of the analyzed sigmoid curves is considered the Emin (Minimal efficacy) value and values of Emin<0 represents inverse agonism of the compounds.

[4] = molecular target: T3, CB1 receptors present in the CNS (Rattus norvegicus, UniProt P20272); experiment: Reversion of the analgesic effect of CP-55,940 in tail flick test in rat; assay type: in vivo; conditions: 10 mg/kg oral
T3 construct: from tissue; host or cells: live Wistar rat, central nervous system
T3 sequence (P20272 whole entry): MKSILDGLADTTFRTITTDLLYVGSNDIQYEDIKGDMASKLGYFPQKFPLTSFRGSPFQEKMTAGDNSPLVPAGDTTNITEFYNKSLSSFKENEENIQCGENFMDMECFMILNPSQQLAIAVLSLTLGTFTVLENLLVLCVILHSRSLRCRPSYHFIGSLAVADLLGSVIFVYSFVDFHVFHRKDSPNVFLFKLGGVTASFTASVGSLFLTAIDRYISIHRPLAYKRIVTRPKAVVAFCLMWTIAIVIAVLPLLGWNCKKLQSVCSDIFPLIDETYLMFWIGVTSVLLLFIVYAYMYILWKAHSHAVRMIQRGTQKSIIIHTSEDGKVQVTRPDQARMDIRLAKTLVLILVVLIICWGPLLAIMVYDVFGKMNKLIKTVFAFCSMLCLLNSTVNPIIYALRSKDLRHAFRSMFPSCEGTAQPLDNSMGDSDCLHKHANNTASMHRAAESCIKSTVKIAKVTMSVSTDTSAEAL
Experimental: as §1
CP-55,940 (Ref. 0949, Tocris; Wiley et al., 1995) was administrated by subcutaneous route at 0.3 mg/kg in a volume of 5 ml/kg in mice and by intraperitoneal route at 0.5 mg/kg in a volume of 2 ml/kg in rat. NESS-0327 (Ruiu et al., 2003) was administrated by intraperitoneal route at 0.3 mg/kg and 1 mg/kg in a volume of 10 ml/kg in mice. […]
The tail flick test was used to evaluate the antinociceptive effect of compounds. […] A noxious beam of light was focused on the mice tail about 4 cm from its tip, and the tail flick latency was recorded automatically to the nearest 0.1 s. […]

[5] = Selectivity for 170 targets
[6] = molecular target: T4, cannabinoid CB1 receptors present in the central nervous system (Rattus norvegicus, UniProt P20272); experiment: Prevention of hypothermia produced by CP55,940 in rat; assay type: in vivo; conditions: CP55,940 0.3 mg/kg ip, FIG. 4
T4 construct: from tissue; host or cells: live Wistar rat, central nervous system
T4 sequence (P20272 whole entry): as above
Experimental: Male Wistar rats (220-270 g) were used. Rats were fed ad libitum with pellet standard rodent chow. Animals were maintained on a 12/12 hour light-dark cycle. They were randomized into groups for compound and vehicle dosing. Animals were first dosed, p.o., with vehicle (saline +1 drop of tween) or with the (4S,5S)-5-(4-chlorophenyl)-1-(2,4-dichlorophenyl)-N-(cis-2,6-dimethylpiperidin-1-yl)-4-methyl-4,5-dihydro-1H-pyrazole-3-carboxamide enantiomer (10 or 30 mg/kg) 60 minutes prior to the second administration, i.p., with vehicle or CP 55,940 (0.3 mg/kg). Body temperature was measured using a rectal probe connected to a thermometer (CIBERTEC). Measurements were performed at T=−60, 0, 60, 120 and 240 minutes following CP55,940 administration. CP,55,940 was administered just after the measurement of Body temperature at T=0.
Data were analyzed by a two-way (treatment, time) analysis of variance (ANOVA) with repeated measure on the time factor. A covariate was included to adjust for differences between treatment groups at baseline (Time 0). Comparisons between average treatment profiles were performed by defining appropriate tests for contrasts within the ANOVA analysis. A value of P<0.05 was considered significant. Data analysis was carried out with the SAS/STAT® release 9.1 statistical package (SAS Institute Inc., Cary, N.C.).

T1 sequence (P47746 whole entry): as the sequence (P20272 whole entry) above, with E95D counted along it

Structure (SMILES) | effect by itself in tail flick test ([1]; 5 mg/kg intraperitoneal, without CP-55,940) | effect by itself in tail flick test ([1]; 5 mg/kg intraperitoneal, without CP-55,940, listed as (4S,5S)-enantiomer) | Ki [2] [nM] | functional behaviour at CB1 receptor (inverse agonist or neutral antagonist) [3] | functional behaviour at CB1 receptor (inverse agonist or neutral antagonist) ([3]; listed as (4S,5S) compound) | Emin (Minimal efficacy) ([3]; [35S]GTPγS binding, Win 55,212-2 0.3 μM, Emin<0 represents inverse agonism) | IC50 ([3]; [35S]GTPγS binding, Win 55,212-2 0.3 μM, read-out: pIC50 (potency) (converted)) [nM] | effect by itself in tail flick test ([4]; without CP-55,940) | effect by itself in tail flick test ([4]; without CP-55,940, listed as (4S,5S)-enantiomer) | selective for 170 targets [5] [%] | prevention of the hypothermia produced by CP55,940 ([6]; 10 mg/Kg p.o.) | prevention of the hypothermia produced by CP55,940 ([6]; 30 mg/Kg p.o.) | functional behaviour at CB1 receptor (inverse agonist or neutral antagonist) ([3]; listed as racemate compound) | reversion of the analgesic effect of CP-55,940 ([1]; 0.3 mg/kg intraperitoneal) | effect by itself in tail flick test ([1]; 0.3 mg/kg intraperitoneal, without CP-55,940) | reversion of the analgesic effect of CP-55,940 ([1]; 1 mg/kg intraperitoneal) | effect by itself in tail flick test ([1]; 1 mg/kg intraperitoneal, without CP-55,940)
C[C@@H]1C(C(=O)NN2[C@H](C)CCC[C@@H]2C)=NN(c2ccc(Cl)cc2Cl)[C@@H]1c1ccc(Cl)cc1 [(4S,5S)-5-(4-chlorophenyl)-1-(2,4-dichlorophenyl)-N-(cis-2,6-dimethylpiperidin-1-yl)-4-methyl-4,5-dihydro-1H-pyrazole-3-carboxamide] | Neither Rimonabant (5 mg/kg) nor the (4S,5S)-5-(4-chlorophenyl)-1-(2,4-dichlorophenyl)-N-(cis-2,6-dimethylpiperidin-1-yl)-4-methyl-4,5-dihydro-1H-pyrazole-3-carboxamide enantiomer (5 mg/kg) showed an effect by themselves | Neither Rimonabant (5 mg/kg) nor the(4S,5S)-enantiomer (5 mg/kg) showed an effect by themselves | 27 ± 10 | neutral antagonist | behaves as a neutral antagonist | −1±8 | 30.2 | Neither Rimonabant (10 mg/kg) nor the ((4S,5S)-5-(4-chlorophenyl)-1-(2,4-dichlorophenyl)-N-(cis-2,6-dimethylpiperidin-1-yl)-4-methyl-4,5-dihydro-1H-pyrazole-3-carboxamide enantiomer (10 mg/kg) showed an effect by themselves | Neither Rimonabant (10 mg/kg) nor (4S,5S)-enantiomer (10 mg/kg) showed an effect by themselves | 99 | does not significantly prevent | does not significantly prevent | – | – | – | – | –
CC1CCCC(C)N1NC(=O)C1=NN(c2ccc(Cl)cc2Cl)[C@H](c2ccc(Cl)cc2)[C@@H]1C (mixture of isomers) [racemate cis-compound, cis-5-(4-chlorophenyl)-1-(2,4-dichlorophenyl)-N-(2,6-dimethylpiperidin-1-yl)-4-methyl-4,5-dihydro-1H-pyrazole-3-carboxamide, reference compound] | – | – | – | behave as inverse agonists | – | – | – | – | – | – | – | – | CB1 inverse agonism | – | – | – | –
O=C(NN1CCCCC1)c1nn(-c2ccc(Cl)cc2Cl)c2c1CCCc1cc(Cl)ccc1-2 [NESS-0327] | – | – | – | – | – | – | – | – | – | – | – | – | – | not at 0.3 mg/kg | Neither NESS-0327 (0.3 mg/kg) nor (1 mg/kg) showed an effect by themselves | significantly inhibited | Neither NESS-0327 (0.3 mg/kg) nor (1 mg/kg) showed an effect by themselves
